The subject of experiment [1] is Gardner lymphosarcoma (GLS). Put plainly: Transplanted tumor growth inhibition in mice, Gardner lymphosarcoma (GLS). Format: in vivo. As to the method:
(§1) The compounds of this invention are active in inhibiting the growth of transplanted tumors in mice and/or in prolonging the life of tumor-innoculated mice. […] The size of the tumor was measured at 7 or 11 days where the drug inhibited tumor growth. Where life-prolongation was concerned, extra life span of treated animals over that of control animals was determined.
(§2) The following table--Table 1--gives the results of experiments in which mice bearing transplanted tumors were treated successfully with a compound of this invention. In the table, column 1 gives the name of the compound; column 2, the transplanted tumor; column 3, the dose level or dose level range and the number of days the dosage was administered; and column 4, the percent inhibition of tumor growth or percent prolongation of survival time, e.g., B16 (ROS is an abbreviation for Ridgeway osteogenic sarcoma; GLS for Gardner lymphosarcoma; P 1534 (J) for a leukemia and B16 for a malignant melanoma.

Experiment [2] deals with Ridgeway osteogenic sarcoma (ROS). As to the kind of experiment: Transplanted tumor growth inhibition in mice, Ridgeway osteogenic sarcoma (ROS). Format: in vivo. As to the method:
as §1, §2

In experiment [3] the test system is experimental malignancies. Conditions: animals; cited from earlier work.
Where [4] appears, read: 0.5 mg/kg × 10 days, measured at 7 days.
[5] abbreviates: 0.5 mg/kg × 10 days, measured at 11 days.
Setting [6] is: Mus musculus, 168 h, 0.125 mg/kg × 10 days, measured at 7 days, read-out: Percent Inhibition (of tumor growth), 7 days.
Where [7] appears, read: Mus musculus, 168 h, 0.25 mg/kg × 10 days, measured at 7 days, read-out: Percent Inhibition (of tumor growth), 7 days.
The mark [8] stands for this setting: Mus musculus, 264 h, 0.125 mg/kg × 10 days, measured at 11 days, read-out: Percent Inhibition (of tumor growth), 11 days.
Setting [9] is: Mus musculus, 168 h, 0.2 mg/kg × 9 days, 7 days, read-out: Percent Inhibition (of tumor growth), 7 days.
Setting [10] is: Mus musculus, 264 h, 0.25 mg/kg × 10 days, measured at 11 days, read-out: Percent Inhibition (of tumor growth), 11 days.
[11] abbreviates: 0.25 mg/kg × 10 days, measured at 11 days.
[12] abbreviates: Mus musculus, 168 h, 0.5 mg/kg × 10 days, measured at 7 days, read-out: Percent Inhibition (of tumor growth), 7 days.

Read-outs that look alike come from different tables or passages of the source.

Turning to `CCC1(O)CC2CN(CCc3c([nH]c4ccccc34)C(C(=O)OC)(c3cc4c(cc3OC)N(C)C3C(O)(C(=O)NN(C)C)C(O)C5(CC)C=CCN6CCC43C65)C2)C1` (stereo not drawn) [4-Desacetyl VLB C-3 N^2,N^2-dimethylcarboxhydrazide], in experiment [1] (setting [4]), the “Percent Inhibition (of tumor growth), 7 days” value (from here on “Percent Inhibition … 7 days”) is recorded as “Toxic”. Moreover, the “Percent Inhibition (of tumor growth), 11 days” value (“Percent Inhibition … 11 days” below) in experiment [1] (setting [5]) is “Toxic”. The inhibition in vivo at 0.125 mg/kg in experiment [1] (setting [6]) is 100%; in experiment [1] (setting [8]) it was 93%. In addition, the inhibition in vivo at 0.25 mg/kg in experiment [1] (setting [7]) came out at 100%.
`CCC1(O)CC2CN(CCc3c([nH]c4ccccc34)C(C(=O)OC)(c3cc4c(cc3OC)N(C)C3C(O)(C(=O)NNCCO)C(O)C5(CC)C=CCN6CCC43C65)C2)C1` (stereo not drawn) [4-Desacetyl VLB C-3 N^2-(β-hydroxy)ethylcarboxhydrazide]: the “Percent Inhibition … 7 days” value in experiment [1] (setting [4]) is “Toxic”; in experiment [2] (0.2 mg/kg × 10 days) it was 0%; in experiment [2] (0.3 mg/kg × 10 days), 14%; in experiment [2] (0.5 mg/kg × 10 days) it was “Toxic”. The “Percent Inhibition … 11 days” value in experiment [1] (setting [5]) is reported as “Toxic”. Besides, the inhibition in vivo at 0.1 mg/kg in experiment [1] (Mus musculus, 168 h, 0.1 mg/kg × 9 days, 7 days, read-out: Percent Inhibition (of tumor growth), 7 days) is 0%. The inhibition in vivo at 0.125 mg/kg was 77% in experiment [1] (setting [6]) and 37% in experiment [1] (setting [8]). For the same compound, the inhibition in vivo at 0.2 mg/kg in experiment [1] (setting [9]) came out at 100%. For the same compound, the figures for the inhibition in vivo at 0.25 mg/kg in experiment [1] (setting [7]) and in experiment [1] (setting [10]) were 100% and 40%, respectively. The inhibition in vivo at 0.3 mg/kg was determined as 20% in experiment [1] (Mus musculus, 168 h, 0.3 mg/kg × 7 days, measured at 7 days, read-out: Percent Inhibition (of tumor growth), 7 days) and 17% in experiment [1] (Mus musculus, 168 h, 0.3 mg/kg × 9 days, 7 days, read-out: Percent Inhibition (of tumor growth), 7 days). The inhibition in vivo at 0.5 mg/kg in experiment [1] (Mus musculus, 168 h, 0.5 mg/kg × 7 days, measured at 7 days, read-out: Percent Inhibition (of tumor growth), 7 days) turned out to be 90%.
On to `CCC1(O)CC2CN(CCc3c([nH]c4ccccc34)C(C(=O)OC)(c3cc4c(cc3OC)N(C)C3C(O)(C(=O)NNC(=O)c5ccccc5)C(O)C5(CC)C=CCN6CCC43C65)C2)C1` (stereo not drawn) [4-Desacetyl VLB C-3 N^2-benzoylcarboxhydrazide], for which the “Percent Inhibition … 11 days” value in experiment [1] (setting [11]) and in experiment [1] (setting [5]) was “Toxic” throughout. For the same compound, the “Percent Inhibition … 7 days” value in experiment [1] (setting [4]) is “Toxic”. The values for the inhibition in vivo at 0.125 mg/kg in experiment [1] (setting [6]) and in experiment [1] (setting [8]) were 76% and 45%, respectively. Further, the inhibition in vivo at 0.25 mg/kg in experiment [1] (setting [7]) came out at 100%.
For the compound `CCOC(=O)NNC(=O)C1(O)C(O)C2(CC)C=CCN3CCC4(c5cc(C6(C(=O)OC)CC7CN(CCc8c6[nH]c6ccccc86)CC(O)(CC)C7)c(OC)cc5N(C)C14)C32` (stereo not drawn) [4-Desacetyl VLB C-3 N^2-ethylcarbazylcarboxhydrazide], the inhibition in vivo at 0.2 mg/kg in experiment [1] (Mus musculus, 168 h, 0.2 mg/kg × 7 days, measured at 7 days, read-out: Percent Inhibition (of tumor growth), 7 days) turned out to be 100%. The inhibition in vivo at 0.4 mg/kg in experiment [1] (Mus musculus, 168 h, 0.4 mg/kg × 7 days, measured at 7 days, read-out: Percent Inhibition (of tumor growth), 7 days) was determined as 93%. For the same compound, the “Percent Inhibition … 7 days” value is listed as 66% in experiment [2] (0.2 mg/kg × 10 days) and “Toxic” in experiment [2] (0.4 mg/kg × 10 days).
As for `CCNNC(=O)C1(O)C(O)C2(CC)C=CCN3CCC4(c5cc(C6(C(=O)OC)CC7CN(CCc8c6[nH]c6ccccc86)CC(O)(CC)C7)c(OC)cc5N(C)C14)C32` (stereo not drawn) [4-Desacetyl VLB C-3 N^2-ethylcarboxhydrazide], the “Percent Inhibition … 11 days” value in experiment [1] (setting [11]) and in experiment [1] (setting [5]) was “Toxic” throughout. Also, the “Percent Inhibition … 7 days” value in experiment [1] (setting [4]) is on record as “Toxic”. Besides, the inhibition in vivo at 0.25 mg/kg in experiment [1] (setting [7]) was determined as 100%.
`CC=NNC(=O)C1(O)C(O)C2(CC)C=CCN3CCC4(c5cc(C6(C(=O)OC)CC7CN(CCc8c6[nH]c6ccccc86)CC(O)(CC)C7)c(OC)cc5N(C)C14)C32` (stereo not drawn) [4-Desacetyl VLB C-3 N^2-ethylidenecarboxhydrazide]: the “Percent Inhibition … 7 days” value in experiment [1] (0.4 mg/kg × 9 days, 7 days) is “Toxic”; in experiment [2] (0.2 mg/kg × 9 days) it was 100%; in experiment [2] (0.4 mg/kg × 9 days) it was “Toxic”. For the same compound, the inhibition in vivo at 0.2 mg/kg in experiment [1] (setting [9]) worked out at 100%.
With `CCC1(O)CC2CN(CCc3c([nH]c4ccccc34)C(C(=O)OC)(c3cc4c(cc3OC)N(C)C3C(O)(C(=O)NN=C(C)C)C(O)C5(CC)C=CCN6CCC43C65)C2)C1` (stereo not drawn) [4-Desacetyl VLB C-3 N^2-isopropylidenecarboxhydrazide], the “Percent Inhibition … 7 days” value is 33% in experiment [2] (0.05 mg/kg × 10 days), 42% in experiment [2] (0.1 mg/kg × 10 days), 74% in experiment [2] (0.15 mg/kg × 10 days) and “Toxic” in experiment [2] (0.2-1.0 mg/kg × 10 days).
For `CCC1(O)CC2CN(CCc3c([nH]c4ccccc34)C(C(=O)OC)(c3cc4c(cc3OC)N(C)C3C(O)(C(=O)NNC)C(O)C5(CC)C=CCN6CCC43C65)C2)C1` (stereo not drawn) [4-Desacetyl VLB C-3 N^2-methylcarboxhydrazide], the “Percent Inhibition … 7 days” value in experiment [1] (0.25-0.5 mg/kg × 10 days, measured at 7 days) was “Toxic”. The “Percent Inhibition … 11 days” value in experiment [1] (0.25-0.5 mg/kg × 10 days, measured at 11 days) is reported as “Toxic”. Besides, the inhibition in vivo at 0.125 mg/kg came out at 83% in experiment [1] (setting [6]) and 53% in experiment [1] (setting [8]).
For `C=NNC(=O)C1(O)C(O)C2(CC)C=CCN3CCC4(c5cc(C6(C(=O)OC)CC7CN(CCc8c6[nH]c6ccccc86)CC(O)(CC)C7)c(OC)cc5N(C)C14)C32` (stereo not drawn) [4-Desacetyl VLB C-3 N^2-methylidenecarboxhydrazide], the “Percent Inhibition … 7 days” value in experiment [1] (setting [4]) is “Toxic”. In experiment [1] (setting [5]), the “Percent Inhibition … 11 days” value is listed as “Toxic”. The inhibition in vivo at 0.125 mg/kg in experiment [1] (setting [6]) and in experiment [1] (setting [8]) was 91% each time. Further, the inhibition in vivo at 0.25 mg/kg in experiment [1] (setting [7]) and in experiment [1] (setting [10]) was 100% throughout.
Turning to `CCC1(O)CN2CCc3c([nH]c4ccccc34)C(C(=O)OC)(c3cc4c(cc3OC)N(C)C3C(O)(C(=O)OC)CC5(CC)C=CCN6CCC43C65)CC(C2)C1O` (stereo not drawn) [4-desacetoxy-3'-hydroxyvinblastine], the “activity in the treatment of experimental malignancies” value (“activity in the treatment” below) in experiment [3] is “found active in the treatment of experimental malignancies in animals”.
Consider `CCC1(O)CC2CN(CCc3c([nH]c4ccccc34)C(C(=O)OC)(c3cc4c(cc3OC)N(C)C3C(O)(C(=O)OC)CC5(CC)C=CCN6CCC43C65)C2)C1` (stereo not drawn) [4-desacetoxyvinblastine], for which, in experiment [3], the “activity in the treatment” value is “found active in the treatment of experimental malignancies in animals”.
Regarding `CCC1(O)CC2CN(CCc3c([nH]c4ccccc34)C(C(=O)OC)(c3cc4c(cc3OC)N(C)C3C(O)(C(=O)NNCCOC(C)=O)C(O)C5(CC)C=CCN6CCC43C65)C2)C1` (stereo not drawn) [4-desacetyl VLB C-3 N^2-(β-acetoxy)ethylcarboxhydrazide], the inhibition in vivo at 0.125 mg/kg was found to be 74% in experiment [1] (setting [6]) and 26% in experiment [1] (setting [8]). Further, the inhibition in vivo at 0.25 mg/kg is 100% in experiment [1] (setting [7]) and 73% in experiment [1] (setting [10]). In addition, the inhibition in vivo at 0.5 mg/kg in experiment [1] (setting [12]) is 100%; in experiment [1] (Mus musculus, 264 h, 0.5 mg/kg × 10 days, measured at 11 days, read-out: Percent Inhibition (of tumor growth), 11 days), 100%.
Take `CCCC(=O)NNC(=O)C1(O)C(O)C2(CC)C=CCN3CCC4(c5cc(C6(C(=O)OC)CC7CN(CCc8c6[nH]c6ccccc86)CC(O)(CC)C7)c(OC)cc5N(C)C14)C32` (stereo not drawn) [4-desacetyl VLB C-3 N^2-butyrylcarboxhydrazide]: the “Percent Inhibition … 11 days” value in experiment [1] (setting [5]) is reported as “Toxic”. Moreover, the inhibition in vivo at 0.125 mg/kg in experiment [1] (setting [6]) and in experiment [1] (setting [8]) was 100% throughout. The inhibition in vivo at 0.25 mg/kg in experiment [1] (setting [7]) and in experiment [1] (setting [10]) was 100% in each case. In addition, the inhibition in vivo at 0.5 mg/kg in experiment [1] (setting [12]) was found to be 64%.
With `CC[C@]1(O)C[C@@H]2CN(CCc3c([nH]c4ccccc34)[C@@](C(=O)OC)(c3cc4c(cc3OC)N(C)[C@H]3[C@@](O)(C(=O)OC)[C@H](OC(C)=O)[C@]5(CC)C=CCN6CC[C@]43[C@@H]65)C2)C1` [VLB, vincaleukoblastine], the “activity in the treatment” value in experiment [3] is on record as “found active in the treatment of experimental malignancies in animals”.
Consider “VLB C-3 N^2 -(β-acetoxy)ethyl-carboxhydrazide”, for which the “Percent Inhibition … 7 days” value in experiment [1] (0.125 mg/kg × 10 days, measured at 7 days) was 36%; in experiment [1] (0.25 mg/kg × 10 days, measured at 7 days), 74%; in experiment [1] (setting [4]), 100%. The “Percent Inhibition … 11 days” value is reported as 35% in experiment [1] (0.125 mg/kg × 10 days, measured at 11 days); 55% in experiment [1] (setting [11]); 87% in experiment [1] (setting [5]).

Values taken from patent US4166810A, “Derivatives of 4-desacetyl VLB C-3 carboxyhydrazide” (priority 1978, dated 1979).
